Measured values from ChEMBL document CHEMBL4823244, “Synthesis of norisoboldine derivatives and bioactivity assay for inducing the generation of regulatory T cells” (Bioorg Med Chem Lett, 2021).
Activity calls are given as the source filed them. The rule behind the calls is not given here.

Experiments:
Mus musculus [1] = assay: Induction of Treg cell differentiation in DSS- induced ulcerative colitis mouse model assessed as number of Treg cells in spleens at 200 mg/kg, po administered for 10 consecutive days by flow cytometry analysis (Rvb= 6.49%); assay type: functional; conditions: time 10 day
Mus musculus [2] = assay: Antiinflammatory activity in DSS-induced ulcerative colitis mouse model assessed as reduction in MPO activity at 200 mg/kg, po administered for 10 consecutive days; assay type: functional, organism-based; conditions: time 10.0 day
Mus musculus [3] = assay: Antiinflammatory activity in DSS-induced ulcerative colitis mouse model assessed as protection against inflammation of colons at 200 mg/kg, po administered for 10 consecutive days by HE staining based histopathological analysis; assay type: functional, organism-based; conditions: time 10.0 day
Mus musculus [4] = assay: Antiinflammatory activity in DSS-induced ulcerative colitis mouse model assessed as protection against colon destruction at 200 mg/kg, po administered for 10 consecutive days by HE staining based histopathological analysis; assay type: functional, organism-based; conditions: time 10.0 day
Mus musculus [5] = assay: Induction of Treg cell differentiation in DSS- induced ulcerative colitis mouse model assessed as number of Treg cells in colonic lamina proprias at 200 mg/kg, po administered for 10 consecutive days by flow cytometry analysis (Rvb= 7.97%); assay type: functional; conditions: time 10 day
Mus musculus [6] = assay: Antiinflammatory activity in DSS-induced ulcerative colitis mouse model assessed as reduction in DAI score at 200 mg/kg, po administered for 10 consecutive days; assay type: functional, organism-based; conditions: time 10.0 day
Mus musculus [7] = assay: Antiinflammatory activity in DSS-induced ulcerative colitis mouse model assessed as rescue of colon length shortening at 200 mg/kg, po administered for 10 consecutive days; assay type: functional, organism-based; conditions: time 10.0 day
Mus musculus [8] = assay: Induction of Treg cell differentiation in DSS- induced ulcerative colitis mouse model assessed as number of Treg cells in mesenteric lymph nodes at 200 mg/kg, po administered for 10 consecutive days by flow cytometry analysis (Rvb= 7.52%); assay type: functional; conditions: time 10 day

Nc1ccc(O)c(C(=O)O)c1 [MESALAMINE]
Activity (Mus musculus [1]): 5.9% | Activity (Mus musculus [2]): Active | Activity (Mus musculus [3]): Active | Activity (Mus musculus [4]): Active | Activity (Mus musculus [5]): 9.59% | Activity (Mus musculus [6]): Active | Activity (Mus musculus [7]): Active | Activity (Mus musculus [8]): 7.7%
